In US10517851B2, “Vasopressin-like action enhancer” (KYORIN PHARMACEUTICAL CO., LTD., priority 2015, dated 2019):

Legend:
female rats [1] = assay: Antidiuretic action in water-loaded rats, urine collected for 2 hours (single agent); format: in vivo, rat; settings: oral water load 25 mL/kg, FIG. 1 / FIG. 2; for antidiuretic action: intravenous dose series; for reduction of the urinary volume at the maximum: intravenous
Protocol: A method according to Watanabe et al. (Watanabe et al 2013 Antidiuretic effect of antimuscanrinic agents in rat model depends on C-fibre afferent nerves in the bladder. BJU Int 112(1) 131-6) was carried out with a partial modification. Female rats (10 to 11-week-old, obtained from Charles River Laboratories Japan) were intravenously administered (1 mL/kg) with a vehicle (saline) or imidafenacin ([…]) and subjected to an oral water load (25 mL/kg). After the rats were transferred to Bollmann cages, urine was collected for 2 hours from each rat via a catheter previously inserted and fixed to the bladder apex of the rat (8 rats in each group). The method according to Watanabe et al. (Watanabe et al 2013 Antidiuretic effect of antimuscanrinic agents in rat model depends on C-fibre afferent nerves in the bladder. BJU Int 112(1) 131-6) was carried out with a partial modification. Female rats (10 to 11-week-old, obtained from Charles River Laboratories Japan) were intravenously administered (1 mL/kg) with a vehicle (saline) or desmopressin ([…]) and subjected to an oral water load (25 mL/kg). After the rats were transferred to Bollmann cages, urine was collected for 2 hours from each rat via a catheter previously inserted and fixed to the bladder apex of the rat (8 rats in each group).

female rats [2] = assay: Effect of mozavaptan (V2 antagonist) on antidiuretic action in water-loaded rats; format: in vivo, rat
Protocol: The method according to Watanabe et al. (Watanabe et al 2013 Antidiuretic effect of antimuscanrinic agents in rat model depends on C-fibre afferent nerves in the bladder. BJU Int 112(1) 131-6) was carried out with a partial modification. Female rats (10 to 11-week-old, obtained from Charles River Laboratories Japan) were intravenously administered with a vehicle (dimethylformamide or saline); mozavaptan (a dose of 0.1 mL/kg of a 30 mg/mL solution); 3 mg/kg of mozavaptan and imidafenacin (10 μg/kg or 300 μg/kg); 3 mg/kg of mozavaptan and desmopressin (0.003 μg/kg or 0.1 μg/kg); or 3 mg/kg of mozavaptan, imidafenacin (10 μg/kg or 300 μg/kg) and desmopressin (0.003 μg/kg or 0.1 μg/kg), and subjected to an oral water load (25 mL/kg). After the rats were transferred to Bollmann cages, urine was collected for 2 hours from each rat via a catheter previously inserted and fixed to the bladder apex of the rat (8 rats in each group).

vasopressin = settings: rat; previous report BJU Int 112(1) 131-6; cited from earlier work

| SMILES | antidiuretic action (female rats [1]) | reduction of the urinary volume at the maximum (female rats [1]) | antidiuretic action of desmopressin at the maximum reaction dose in the presence of mozavaptan (female rats [2]; desmopressin 0.1 μg/kg with 3 mg/kg of mozavaptan, intravenous, FIG. 4) | antidiuretic action of desmopressin in the presence of mozavaptan (female rats [2]; desmopressin with 3 mg/kg of mozavaptan, intravenous, FIG. 4) | antidiuretic action on addition of imidafenacin to the mozavaptan and desmopressin group (female rats [2]; imidafenacin 300 μg/kg added to 3 mg/kg mozavaptan and 0.1 μg/kg desmopressin, FIG. 5) | antidiuretic action of imidafenacin in the presence of mozavaptan (female rats [2]; imidafenacin at the maximum reaction dose of 300 μg/kg with 3 mg/kg of mozavaptan, intravenous, FIG. 4) | release of vasopressin (vasopressin) |
| --- | --- | --- | --- | --- | --- | --- | --- |
| NC(=O)CC[C@@H]1NC(=O)[C@H](Cc2ccccc2)NC(=O)[C@H](Cc2ccc(O)cc2)NC(=O)CCSSC[C@@H](C(=O)N2CCC[C@H]2C(=O)N[C@H](CCCN=C(N)N)C(=O)NCC(N)=O)NC(=O)[C@H](CC(N)=O)NC1=O [desmopressin] | dose-dependent manner | about 100% | recovered | also suppressed |  |  |  |
| Cc1nccn1CCC(C(N)=O)(c1ccccc1)c1ccccc1 [imidafenacin] | dose-dependent manner | about 50% |  |  | further enhanced | completely suppressed | not affected |
